Experimental data reported in ChEMBL document CHEMBL1201862, “PubChem BioAssay data set” (2004).
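1) Cells in 96-well plates. 2) Compound, 48 h, 5 concentrations. 3) Linear interpolation between surrounding doses. 4) Unreached endpoint = highest concentration. GI50 is the concentration that inhibits growth by half.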 Active and inactive are the calls of the source. No stated cut-off is given here; in the data, active = GI50 up to about 1.1 µM and inactive = higher.

What was measured:
Test in all cases: NCI-60 cell line screen, 48 h
[1] = tested on: CCRF-CEM
[2] = tested on: CAKI-1
[3] = tested on: TK-10
[4] = tested on: OVCAR-8
[5] = tested on: SF-295
[6] = tested on: T47D
[7] = tested on: IGROV-1
[8] = tested on: SK-MEL-5
[9] = tested on: RXF 393
[10] = tested on: SW-620
[11] = tested on: A498
[12] = tested on: HOP-92
[13] = tested on: M14
[14] = tested on: RPMI-8226
[15] = tested on: K562
[16] = tested on: DU-145
[17] = tested on: HOP-62
[18] = tested on: MCF7
[19] = tested on: SF-268
[20] = tested on: HT-29
[21] = tested on: SN12C
[22] = tested on: MDA-MB-231
[23] = tested on: UO-31
[24] = tested on: SNB-19
[25] = tested on: NCI-H460
[26] = tested on: Malme-3M
[27] = tested on: SK-MEL-2
[28] = tested on: U-251
[29] = tested on: HCT-15
[30] = tested on: OVCAR-4
[31] = tested on: NCI/ADR-RES
[32] = tested on: Hs-578T
[33] = tested on: PC-3
[34] = tested on: COLO 205
[35] = tested on: UACC-257
[36] = tested on: LOX IMVI
[37] = tested on: NCI-H522
[38] = tested on: 786-0
[39] = tested on: KM12
[40] = tested on: SNB-75
[41] = tested on: OVCAR-3
[42] = tested on: SR
[43] = tested on: NCI-H23
[44] = tested on: ACHN
[45] = tested on: MDA-MB-435
[46] = tested on: SF-539
[47] = tested on: UACC-62
[48] = tested on: HCT-116
[49] = tested on: MOLT-4
[50] = tested on: NCI-H226
[51] = tested on: BT-549
[52] = tested on: HL-60
[53] = tested on: OVCAR-5
[54] = tested on: SK-OV-3
[55] = tested on: A549
[56] = tested on: SK-MEL-28
[57] = tested on: MDA-N
[58] = tested on: HCC 2998
[59] = tested on: EKVX

COc1cc2c(/C=C3/C(=O)Nc4cc(C)c(O)cc43)c(Cl)[nH]c2cc1C
GI50 [1]: 0.552 µM (active)
GI50 [2]: 2.55 µM (inactive)
GI50 [3]: 1.9 µM (inactive)
GI50 [4]: 3.69 µM (inactive)
GI50 [5]: 1.52 µM (inactive)
GI50 [6]: 3.16 µM (inactive)
GI50 [7]: 4.06 µM (inactive)
GI50 [8]: 2.31 µM (inactive)
GI50 [9]: 1.66 µM (inactive)
GI50 [10]: 2.83 µM (inactive)
GI50 [11]: 13.9 µM (inactive)
GI50 [12]: 23 µM (inactive)
GI50 [13]: 1.86 µM (inactive)
GI50 [14]: 1.75 µM (inactive)
GI50 [15]: 0.815 µM (active)
GI50 [16]: 2.75 µM (inactive)
GI50 [17]: 2 µM (inactive)
GI50 [18]: 1.8 µM (inactive)
GI50 [19]: 6.12 µM (inactive)
GI50 [20]: 2.33 µM (inactive)
GI50 [21]: 2.4 µM (inactive)
GI50 [22]: 2.59 µM (inactive)
GI50 [23]: 4.31 µM (inactive)
GI50 [24]: 2.82 µM (inactive)
GI50 [25]: 2.51 µM (inactive)
GI50 [26]: 0.407 µM (active)
GI50 [27]: 4.98 µM (inactive)
GI50 [28]: 3.9 µM (inactive)
GI50 [29]: 3.33 µM
GI50 [30]: 4.31 µM (inactive)
GI50 [31]: 2.88 µM (inactive)
GI50 [32]: 2.13 µM (inactive)
GI50 [33]: 3.18 µM (inactive)
GI50 [34]: 2.03 µM (inactive)
GI50 [35]: 6.18 µM (inactive)
GI50 [36]: 5.61 µM (inactive)
GI50 [37]: 2.98 µM (inactive)
GI50 [38]: 2.59 µM (inactive)
GI50 [39]: 1.85 µM (inactive)
GI50 [40]: 2.05 µM (inactive)
GI50 [41]: 1.06 µM (active)
GI50 [42]: 0.376 µM (active)
GI50 [43]: 1.26 µM (inactive)
GI50 [44]: 4.37 µM (inactive)
GI50 [45]: 0.368 µM (active)
GI50 [46]: 2.2 µM (inactive)
GI50 [47]: 1.96 µM (inactive)
GI50 [48]: 2.64 µM (inactive)
GI50 [49]: 0.148 µM (active)
GI50 [50]: 5.69 µM (inactive)
GI50 [51]: 6.75 µM (inactive)
GI50 [52]: 1.86 µM (inactive)
GI50 [53]: 4.33 µM (inactive)
GI50 [54]: 2.1 µM (inactive)
GI50 [55]: 4.01 µM (inactive)
GI50 [56]: 4.91 µM (inactive)

CC12ON=C(c3ccccc3)N1C=CN1C(c3ccccc3)=NOC12 (stereo unspecified)
GI50 [2]: > 100 µM (inactive)
GI50 [3]: > 100 µM (inactive)
GI50 [4]: > 100 µM (inactive)
GI50 [5]: > 100 µM (inactive)
GI50 [7]: > 100 µM (inactive)
GI50 [8]: 13 µM (inactive)
GI50 [9]: 64.9 µM (inactive)
GI50 [57]: > 100 µM (inactive)
GI50 [13]: > 100 µM (inactive)
GI50 [16]: > 100 µM (inactive)
GI50 [17]: > 100 µM (inactive)
GI50 [18]: > 100 µM (inactive)
GI50 [19]: > 100 µM (inactive)
GI50 [22]: > 100 µM (inactive)
GI50 [23]: > 100 µM (inactive)
GI50 [24]: > 100 µM (inactive)
GI50 [25]: > 100 µM (inactive)
GI50 [26]: > 100 µM (inactive)
GI50 [58]: > 100 µM (inactive)
GI50 [29]: > 100 µM
GI50 [31]: > 100 µM (inactive)
GI50 [32]: > 100 µM (inactive)
GI50 [33]: > 100 µM (inactive)
GI50 [34]: 37.2 µM (inactive)
GI50 [35]: > 100 µM (inactive)
GI50 [36]: > 100 µM (inactive)
GI50 [37]: > 100 µM (inactive)
GI50 [38]: > 100 µM (inactive)
GI50 [59]: > 100 µM (inactive)
GI50 [39]: > 100 µM (inactive)
GI50 [40]: > 100 µM (inactive)
GI50 [41]: > 100 µM (inactive)
GI50 [43]: > 100 µM (inactive)
GI50 [44]: > 100 µM (inactive)
GI50 [46]: > 100 µM (inactive)
GI50 [47]: > 100 µM (inactive)
GI50 [48]: 98.6 µM (inactive)
GI50 [50]: > 100 µM (inactive)
GI50 [51]: > 100 µM (inactive)
GI50 [53]: > 100 µM (inactive)
GI50 [54]: > 100 µM (inactive)
GI50 [55]: > 100 µM (inactive)

COC(=O)c1c(O)ccc2c1c1c(n2Cc2ccccc2)C(=O)c2ccccc2C1
GI50 [1]: 21.1 µM (inactive)
GI50 [2]: 36.5 µM (inactive)
GI50 [3]: 65.9 µM (inactive)
GI50 [4]: 39.7 µM (inactive)
GI50 [5]: 27.1 µM (inactive)
GI50 [7]: 40.6 µM (inactive)
GI50 [8]: 50 µM (inactive)
GI50 [9]: 21.3 µM (inactive)
GI50 [57]: 43.4 µM (inactive)
GI50 [10]: 74 µM (inactive)
GI50 [11]: 64.7 µM (inactive)
GI50 [13]: 52.4 µM (inactive)
GI50 [14]: 12.4 µM (inactive)
GI50 [15]: 2.84 µM (inactive)
GI50 [16]: 99.3 µM (inactive)
GI50 [17]: > 100 µM (inactive)
GI50 [18]: 25.4 µM (inactive)
GI50 [19]: 39 µM (inactive)
GI50 [20]: 18.4 µM (inactive)
GI50 [21]: 21.6 µM (inactive)
GI50 [22]: 39.7 µM (inactive)
GI50 [23]: 49.4 µM (inactive)
GI50 [24]: 95.5 µM (inactive)
GI50 [25]: 31.9 µM (inactive)
GI50 [26]: 69.5 µM (inactive)
GI50 [27]: 43.6 µM (inactive)
GI50 [28]: 38 µM (inactive)
GI50 [29]: 35.1 µM
GI50 [30]: 18.6 µM (inactive)
GI50 [31]: 25.8 µM (inactive)
GI50 [32]: 86.5 µM (inactive)
GI50 [33]: 20 µM (inactive)
GI50 [34]: 15.4 µM (inactive)
GI50 [35]: 50.6 µM (inactive)
GI50 [36]: 26.2 µM (inactive)
GI50 [38]: 39.2 µM (inactive)
GI50 [39]: 35.1 µM (inactive)
GI50 [40]: 20.6 µM (inactive)
GI50 [41]: 43 µM (inactive)
GI50 [42]: 7.48 µM (inactive)
GI50 [43]: 41.2 µM (inactive)
GI50 [45]: 33 µM (inactive)
GI50 [46]: 26.2 µM (inactive)
GI50 [47]: 36.9 µM (inactive)
GI50 [48]: 54.6 µM (inactive)
GI50 [49]: 3.17 µM (inactive)
GI50 [50]: 46.3 µM (inactive)
GI50 [51]: 58.6 µM (inactive)
GI50 [52]: 12.6 µM (inactive)
GI50 [53]: 0.0282 µM (active)
GI50 [54]: 31.9 µM (inactive)
GI50 [55]: 30.8 µM (inactive)
GI50 [56]: 44.6 µM (inactive)
